Where two headings read alike, the source gives them in different places.
Experiments:
[1] = system: SARS-CoV-2 RdRp; conditions: in vitro; cited from earlier work
[2] = system: Respiratory syncytial virus; conditions: cited from earlier work
[3] = system: CRFK cells
[4] = in vitro; conditions: cat, CC50
[5] = system: Influenza A virus; conditions: in vitro; cited from earlier work
[6] = system: FIPV; assay: Post-viral entry assay, FIPV-infected cells by IPMA; conditions: Alphacoronavirus 1, CRFK
[7] = system: Duck hepatitis A virus; set-up: method as in PMID 27927057; conditions: in vitro, at 20 µg/mL; cited from earlier work

In the case of `O=c1cc(-c2ccc(O)c(O)c2)oc2cc(O)cc(O)c12` [Luteolin], the IC50 [1] is given as 4.6 µM, the “antiviral activity (in vitro concentration)” value [2] is given as 2.08 to 24.71 µM and the CC10 ([3]; cat, 24 h) is given as 136.80 ± 2.37 µM. For the same compound, the CC50 ([3]; cat, 24 h) was 248 ± 3.4 µM, the CC50 at 24 h [4] was > 200 µM and the EC50 [5] was 6.89 to 7.15 µM. The EC50 [6] was 36.28 ± 0.03 µM and the EC90 [6] was 66 ± 1.82 µM.

For `COc1ccc(-c2cc(=O)c3c(O)cc(O[C@@H]4O[C@H](CO[C@@H]5O[C@@H](C)[C@H](O)[C@@H](O)[C@H]5O)[C@@H](O)[C@H](O)[C@H]4O)cc3o2)cc1` [Linarin], the inhibition [7] is listed as “Duck hepatitis A virus (in vitro: 69.3% inhibition at 20 µg/mL)” and the CC50 [3] is listed as > 200 µM.
